Measured values reported in patent EP0109294A2, “Cephalosporin esters” (Takeda Chemical Industries, Ltd., priority 1982, dated 1984).
Counter-ions that a name gives are not always drawn.

Assay: in vivo
Design: species or system mice
Details: mouse, 100 mg/kg; for Bio-availability / AUC / Plasma level of non-ester 2 hr: 120 min; for Plasma level of non-ester 0.25 hr / Plasma level of non-ester 0.5 hr / Plasma level of non-ester 1 hr / AUC / Plasma level of non-ester 2 hr: po; for Plasma level of non-ester 0.25 hr: 15 min; for Plasma level of non-ester 0.5 hr: 30 min; for Plasma level of non-ester 1 hr: 60 min
Experimental: The compounds produced according to the Examples (Compound Nos. 2, 4, 6 and 8) and, as a reference control, pivaloyloxymethyl ester of compound (II) (hereinafter referred to as Compound A) are orally administered to mice at a common dose level of 100 mg/kg (as the non-ester, i.e. compound (II) per mouse). After administration, the plasma concentrations of compound (II) at 0.25, 0.5, 1.0 and 2.0 hours are determined by the cup assay method (using Proteus mirabilis Eb 313 as the test organism) and the area under plasma concentration- time curve (AUC) over 0 to 2 hours is calculated.
As a control, compound (II) is subcutaneously administered to mice at the same dose and the AUC is similarly calculated.

CN(C)CCn1nnnc1SCC1=C(C(=O)OCOC(=O)C(C)(C)C)N2C(=O)[C@@H](NC(=O)Cc3csc(N)n3)[C@H]2SC1 [Compound A, pivaloyloxymethyl ester of compound (II), reference compound]
Bio-availability: 41.8
Plasma level of non-ester 0.25 hr: 21000 ng/mL
Plasma level of non-ester 0.5 hr: 16200 ng/mL
Plasma level of non-ester 1 hr: 6100 ng/mL
AUC: 16200 ng·h/mL
Plasma level of non-ester 2 hr: 600 ng/mL

CC(OC(=O)CC1CCCCC1)OC(=O)C1=C(CSc2nnnn2CCN(C)C)CS[C@@H]2[C@H](NC(=O)Cc3csc(N)n3)C(=O)N12 (stereo partly drawn) [Compound No. 2, 1-(Cyclohexylacetoxy)ethyl 7β-[2-(2-aminothiazol-4-yl)acetamido]-3-[[[1-(2-dimethylaminoethyl)-1H-tetrazol-5-yl]thio]methyl] ceph-3-em-4-carboxylate dihydrochloride]
Bio-availability: 107.7
Plasma level of non-ester 0.25 hr: 43900 ng/mL
Plasma level of non-ester 0.5 hr: 45200 ng/mL
Plasma level of non-ester 1 hr: 16400 ng/mL
AUC: 41800 ng·h/mL
Plasma level of non-ester 2 hr: 3100 ng/mL

CC(OC(=O)C1=C(CSc2nnnn2CCN(C)C)CS[C@@H]2[C@H](NC(=O)Cc3csc(N)n3)C(=O)N12)OC(=O)C1CCCCC1 (stereo partly drawn) [Compound No. 4, 1-(Cyclohexanecarbonyloxy)ethyl 7β-[2-(2-amino-thiazol-4-yl)acetamido]-3-[[[1-(2-dimethylaminoethyl)-1H-tetrazol-5-yl]thio]methyl] ceph-3-em-4-carboxylate dihydrochloride]
Bio-availability: 76.2
Plasma level of non-ester 0.25 hr: 43600 ng/mL
Plasma level of non-ester 0.5 hr: 31700 ng/mL
Plasma level of non-ester 1 hr: 8380 ng/mL
AUC: 29600 ng·h/mL
Plasma level of non-ester 2 hr: 1010 ng/mL

CC(OC(=O)CC1CCCC1)OC(=O)C1=C(CSc2nnnn2CCN(C)C)CS[C@@H]2[C@H](NC(=O)Cc3csc(N)n3)C(=O)N12 (stereo partly drawn) [Compound No. 6, 1-(Cyclopentylacetoxy)ethyl 7β-[2-(2-aminothiazol-4-yl)acetamido]-3-[[[1-(2-dimethylaminoethyl)-1H-tetrazol-5-yl]thio]methyl] ceph-3-em-4-carboxylate dihydrochloride]
Bio-availability: 82.2
Plasma level of non-ester 0.25 hr: 23200 ng/mL
Plasma level of non-ester 0.5 hr: 27200 ng/mL
Plasma level of non-ester 1 hr: 16900 ng/mL
AUC: 31900 ng·h/mL
Plasma level of non-ester 2 hr: 6460 ng/mL

CC(OC(=O)C1=C(CSc2nnnn2CCN(C)C)CS[C@@H]2[C@H](NC(=O)Cc3csc(N)n3)C(=O)N12)OC(=O)C1CCCC1 (stereo partly drawn) [Compound No. 8, 1-(Cyclopentanecarbonyloxy)ethyl 7β-[2-(2-aminothiazol-4-yl)acetamido]-3-[[[1-(2-dimethylaminoethyl)-1H-tetrazol-5-yl]thio]methyl] ceph-3-em-4-carboxylate dihydrochloride]
Bio-availability: 78.3
Plasma level of non-ester 0.25 hr: 42500 ng/mL
Plasma level of non-ester 0.5 hr: 29900 ng/mL
Plasma level of non-ester 1 hr: 10500 ng/mL
AUC: 30400 ng·h/mL
Plasma level of non-ester 2 hr: 1350 ng/mL

CN(C)CCn1nnnc1SCC1=C(C(=O)O)N2C(=O)[C@@H](NC(=O)Cc3csc(N)n3)[C@H]2SC1 [compound (II), 7S-[2-(2-aminothiazol-4-yl)-acetamido]-3-[[[1-(2-dimethylaminoethyl)-1H-tetrazol-5-yl]thio]methyl]ceph-3-em-4-carboxylic acid, reference compound]
AUC at 2 h (sc): 38800 ng·h/mL
concentration at 0.25 h (sc): 69200 ng/mL
concentration at 0.5 h (sc): 29000 ng/mL
concentration at 1 h (sc): 13200 ng/mL
concentration at 2 h (sc): 1500 ng/mL
Bio-availability (sc): 100
